Laboratory results taken from PubChem BioAssay AID1963420 (Molecular Pharmacology Branch, DTP, NCI, 2024).
Where “and” joins values, the source holds several entries; their conditions need not be identical. Equal values may be shown once.

System: 494315-158-R-J1-PDC complex spheroid growth, percent test/control
Test: Anticancer human tumor 494315-158-R-J1-PDC patient-derived soft tissue sarcoma cell line growth inhibition [Asc]
Settings: for viability, T/C: stronger effect = lower value
Description: Multicellular complex tumor spheroid response to apoptosis pathway targeting inhibitors Alrizomadlin, Pelcitoclax, and Dasminapant in combination with a variety of drugs and investigational agents in selected tumor cell lines
The MDM2 inhibitor alrizomadlin, the Bcl-2/Bcl-xL inhibitor pelcitoclax, and the IAPs inhibitor dasminapant were evaluated both individually and in combination with standard of care and investigational anticancer small molecules within a complex spheroid model of solid tumors. . Complex spheroids include a stromal component modeled by human endothelial cells (HUVEC) and fibroblasts modeled by human mesenchymal stem cells (MSCs). The concentration ranges selected for each drug and investigational agent were based upon clinically achievable concentrations if the clinical Cmax of the agent was known.
Compounds. The drugs and investigational agents: alrizomadlin (APG-115; NSC831270), pelcitoclax (APG-1252; NSC835773), dasminapant (APG-1387;NSC834197), TAK-243 (NSC785004), copanlisib (NSC809693), olaparib (NSC753686), talazoparib (NSC767125), cobimetinib (NSC 768068), eltanexor (KPT-8602, NSC 794443), abemaciclib (NSC 768073), sotorasib (NSC818433), adagrasib (NSC 831453), MRTX-1133 (NSC 836407), Iadademestat (ORY1001, NSC 806812), and RMC-4630 (NSC839698), were obtained from the NCI Developmental Therapeutics Program Chemical Repository. The FDA-approved anticancer drug set is available from the Developmental Therapeutics Program at https://dtp.cancer.gov/organization/dscb/obtaining/available plates.htm. […] The stock solutions were prepared in dimethyl sulfoxide (DMSO, Sigma-Aldrich, St. Louis, MO, cat. D2650) at 800-fold the tested concentration and stored at -70 degrees C prior to their use. All drugs and investigational agents were tested over a range starting from a high concentration at or near the clinical Cmax and decreasing in half-log increments. If the clinical Cmax for an agent had not been determined, the highest concentration tested was 10 microM.
The patient-derived cancer (PDC) cell lines include five colon adenocarcinomas: 186277-243-T-J2-PDC, 616215-338-R-J1-PDC, 439559-082-T-J2-PDC, 463943-066-T-J2-PDC, and 519858-162-T-J1-PDC; three pancreatic carcinomas: 323965-272-R-J2-PDC, 521955-158-R6-J3-PDC, and 521955-158-R2-J5-PDC; two uterine sarcomas: 327498-152-R-J2-PDC and 993429-296-R-J1-PDC; two rhabdomyosarcomas: 755483-174-R-J1-PDC and 772245-204-R-J1-PDC; two soft tissue sarcomas: 126254-015-R-J1-PDC and 494315-158-R-J1-PDC; two malignant fibrous histiocytomas: 317291-083-R-J1-PDC and 596521-263-R-J1-PDC; two breast carcinomas: 171881-019-R-J1-PDC and 885512-296-R-J2-PDC; and one ovarian carcinoma: 6556581-035-R-J-PDC were obtained from the NCI PDMR, (https://pdmr.cancer.gov). The established cell lines HSSY-2 synovial sarcoma (RRID:CVCL 8719), SYO-1 synovial sarcoma (RRID:CVCL_7146), MPNST malignant peripheral neural sheath tumor were obtained from the Sloan Kettering Institute. The following established cell lines were purchased from the American Type Culture Collection (ATCC, Manassas, VA), Sor the received from the NCI repository:, PANC-1 pancreatic carcinoma (CRL-1469, RRID:CVCL_0480), OVCAR-5 ovarian carcinoma (RRID:CVCL_1628), OVCAR-8 ovarian carcinoma (RRID:CVCL_1629), , MCF-7 breast carcinoma (CRL-12584, RRID:CVCL_0031), MDA-MB-231 breast carcinoma (CRL-12532, RRID:CVCL_0062), NCI-H1876 small cell lung carcinoma (CRL-5902, RRID:CVCL_1503), NCI-H510A small cell lung carcinoma (HTB-184, RRID:CVCL_1565), NCI-H1417 (CRL-5869, RRID:CVCL_1469), and NCI-H196 small cell lung carcinoma (CRL-5823, RRID:CVCL_1509). Dr. Peter Houghton (Greehey Children's Cancer Research Institute, University of Texas Health Science Center, San Antonio, TX) provided Rh-18 rhabdomyosarcoma (RRID:CVCL_1659). Pooled donor human umbilical vein endothelial cells (HUVEC, Lonza, cat. CC-2519) and human mesenchymal stem cells (hMSC, Lonza, cat. PT-2501) were purchased from Lonza (Walkersville, MD).
Cell Culture. […]

[1] = curve of first compound, second compound 0.03 µM
[2] = curve of first compound, second compound 0.0949 µM
[3] = curve of first compound, second compound 0.3 µM
[4] = curve of first compound, second compound 0.949 µM
[5] = curve of first compound, second compound 3 µM
[6] = second compound 0.03 µM, first compound 0.0316 µM
[7] = second compound 0.03 µM, first compound 0.1 µM
[8] = second compound 0.03 µM, first compound 0.316 µM
[9] = second compound 0.03 µM, first compound 1 µM
[10] = second compound 0.03 µM, first compound 3.16 µM
[11] = second compound 0.03 µM, first compound 10 µM
[12] = second compound 0.0949 µM, first compound 0.0316 µM
[13] = second compound 0.0949 µM, first compound 0.1 µM
[14] = second compound 0.0949 µM, first compound 0.316 µM
[15] = second compound 0.0949 µM, first compound 1 µM
[16] = second compound 0.0949 µM, first compound 3.16 µM
[17] = second compound 0.0949 µM, first compound 10 µM
[18] = second compound 0.3 µM, first compound 0.0316 µM
[19] = second compound 0.3 µM, first compound 0.1 µM
[20] = second compound 0.3 µM, first compound 0.316 µM
[21] = second compound 0.3 µM, first compound 1 µM
[22] = second compound 0.3 µM, first compound 3.16 µM
[23] = second compound 0.3 µM, first compound 10 µM
[24] = second compound 0.949 µM, first compound 0.0316 µM
[25] = second compound 0.949 µM, first compound 0.1 µM
[26] = second compound 0.949 µM, first compound 0.316 µM
[27] = second compound 0.949 µM, first compound 1 µM
[28] = second compound 0.949 µM, first compound 3.16 µM
[29] = second compound 0.949 µM, first compound 10 µM
[30] = second compound 3 µM, first compound 0.0316 µM
[31] = second compound 3 µM, first compound 0.1 µM
[32] = second compound 3 µM, first compound 0.316 µM
[33] = second compound 3 µM, first compound 1 µM
[34] = second compound 3 µM, first compound 3.16 µM
[35] = second compound 3 µM, first compound 10 µM
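Also: compound exposure lasted seven days after spheroids formed for three days.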

IC50 [1]	IC50 [2]	IC50 [3]	IC50 [4]	IC50 [5]	Structure (SMILES)	viability, T/C [6]	viability, T/C [7]	viability, T/C [8]	viability, T/C [9]	viability, T/C [10]	viability, T/C [11]	viability, T/C [12]	viability, T/C [13]	viability, T/C [14]	viability, T/C [15]	viability, T/C [16]	viability, T/C [17]	viability, T/C [18]	viability, T/C [19]	viability, T/C [20]	further results
> 10 µM	> 10 µM	> 10 µM	> 10 µM	> 10 µM	C#Cc1c(F)ccc2cc(O)cc(-c3ncc4c(N5CC6CCC(C5)N6)nc(OCC56CCCN5CC(F)C6)nc4c3F)c12 (configuration not stated) + CCN1C(C(=O)NC23CCC(C(=O)O)(CC2)CC3)C(c2cccc(Cl)c2F)C2(C(=O)Nc3cc(Cl)ccc32)C12CCCCC2	94.3%	105%	116%	94.5%	108%	94.6%	89.9%	80.4%	98.2%	87.4%	90.5%	71.4%	95.1%	102%	102%	viability, T/C [21]: 103%; viability, T/C [22]: 108%; viability, T/C [23]: 75.9%; viability, T/C [24]: 85.1%; viability, T/C [25]: 100%; viability, T/C [26]: 107%; viability, T/C [27]: 83.8%; viability, T/C [28]: 110%; viability, T/C [29]: 86.2%; viability, T/C [30]: 89.5%; viability, T/C [31]: 91.5%; viability, T/C [32]: 89%; viability, T/C [33]: 107%; viability, T/C [34]: 100%; viability, T/C [35]: 85.6%
> 10 µM	> 10 µM	> 10 µM	> 10 µM	> 10 µM	C=CC(=O)N1CCN(c2nc(=O)n(-c3c(C)ccnc3C(C)C)c3nc(-c4c(O)cccc4F)c(F)cc23)C(C)C1 (configuration not stated) + CCN1C(C(=O)NC23CCC(C(=O)O)(CC2)CC3)C(c2cccc(Cl)c2F)C2(C(=O)Nc3cc(Cl)ccc32)C12CCCCC2	111%	97.2%	119%	128%	128%	104%	90.4%	96.8%	96.3%	110%	92.8%	99.9%	97.6%	119%	111%	viability, T/C [21]: 119%; viability, T/C [22]: 114%; viability, T/C [23]: 117%; viability, T/C [24]: 85.5%; viability, T/C [25]: 114%; viability, T/C [26]: 106%; viability, T/C [27]: 108%; viability, T/C [28]: 130%; viability, T/C [29]: 110%; viability, T/C [30]: 102%; viability, T/C [31]: 96.9%; viability, T/C [32]: 97.9%; viability, T/C [33]: 113%; viability, T/C [34]: 126%; viability, T/C [35]: 104%
					Cn1ncnc1[C@H]1c2n[nH]c(=O)c3cc(F)cc(c23)N[C@@H]1c1ccc(F)cc1																viability, T/C (compound 0.000316 µM): 84.6% and 103% and 102%; viability, T/C (compound 0.001 µM): 85.7% and 93.6% and 83.1%; viability, T/C (compound 0.00316 µM): 83.3% and 95.1% and 85%; viability, T/C (compound 0.01 µM): 73.3% and 73.7% and 87.7%; viability, T/C (compound 0.0316 µM): 66.1% and 69.2% and 73.8%; viability, T/C (compound 0.1 µM): 67.4% and 65.3% and 60.4%; IC50 (curve of compound): > 0.1 µM
